Laboratory results taken from US20230000842A1, “METHODS OF TREATING CARTILAGE DISORDERS THROUGH INHIBITION OF CLK AND DYRK” (SAMUMED, LLC, priority 2019, published 2023).

Legend:
CLK2 kinase = CLK2 kinase (Homo sapiens, UniProt P49760); test: CLK2 kinase activity assay (Z-lyte FRET); type: biochemical; settings: Z-lyte Ser/Thr 6 peptide, 60 μM ATP, 1 h at room temperature;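 note: FRET read-out as coumarin to fluorescein emission ratio, unphosphorylated peptide as 0% and phosphorylated peptide as 100% controls, duplicate reactions, non-linear regression fit of dose-response curves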
CLK2 kinase, sequence (P49760 whole entry): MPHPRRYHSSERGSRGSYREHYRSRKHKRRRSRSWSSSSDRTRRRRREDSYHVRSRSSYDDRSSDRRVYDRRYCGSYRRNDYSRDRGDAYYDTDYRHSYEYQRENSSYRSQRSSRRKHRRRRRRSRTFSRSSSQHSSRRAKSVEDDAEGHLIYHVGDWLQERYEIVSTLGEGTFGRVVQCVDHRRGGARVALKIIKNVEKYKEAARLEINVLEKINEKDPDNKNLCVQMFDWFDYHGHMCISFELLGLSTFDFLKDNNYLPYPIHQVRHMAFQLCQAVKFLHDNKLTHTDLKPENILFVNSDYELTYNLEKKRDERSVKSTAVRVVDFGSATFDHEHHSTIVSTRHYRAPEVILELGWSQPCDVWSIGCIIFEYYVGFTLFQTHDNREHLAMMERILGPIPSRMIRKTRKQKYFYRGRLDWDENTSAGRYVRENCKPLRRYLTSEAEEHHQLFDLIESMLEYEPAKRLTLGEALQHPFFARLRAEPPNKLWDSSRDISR

CLK3 kinase = CLK3 kinase (Homo sapiens, UniProt P49761); test: CLK3 kinase activity assay (Z-lyte FRET); type: biochemical; settings: Z-lyte Ser/Thr 18 peptide, 156 μM ATP, 1 h at room temperature;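 note: kinase activity read as coumarin/fluorescein emission ratio by FRET, unphosphorylated peptide as 0% and phosphorylated peptide as 100% control, values from non-linear regression of dose-response curves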
CLK3 kinase, sequence (P49761 whole entry): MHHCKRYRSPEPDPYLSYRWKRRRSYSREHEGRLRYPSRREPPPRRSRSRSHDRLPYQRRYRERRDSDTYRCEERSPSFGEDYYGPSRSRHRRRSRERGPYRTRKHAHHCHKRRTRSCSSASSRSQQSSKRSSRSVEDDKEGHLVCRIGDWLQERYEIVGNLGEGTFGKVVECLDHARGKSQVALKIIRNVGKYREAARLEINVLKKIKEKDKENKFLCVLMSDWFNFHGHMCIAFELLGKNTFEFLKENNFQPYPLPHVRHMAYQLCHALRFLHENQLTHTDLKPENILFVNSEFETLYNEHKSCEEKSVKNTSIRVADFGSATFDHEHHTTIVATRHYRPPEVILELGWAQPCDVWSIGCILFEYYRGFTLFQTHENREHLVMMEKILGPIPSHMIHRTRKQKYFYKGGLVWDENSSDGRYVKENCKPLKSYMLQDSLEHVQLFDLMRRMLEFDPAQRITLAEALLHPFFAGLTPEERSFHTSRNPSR

[1] = test system: MMP-3 levels in supernatant of chondrocytes stimulated with IL1-β; test: Chondrocyte protection assay compound screening (MMP-3 LANCE Ultra); type: cell-based, human; settings: Homo sapiens, Chondrocyte, IL1-β 10 ng/mL overnight, 11-point curves from 3 μM to 0.05 nM; for Emax: read-out: Maximum % Inhibition
Procedure: Human Chondrocyte Cell Culture: Primary human chondrocytes were purchased from Lonza (Walkersville, Md.) and expanded in Chondrocyte Growth Media (CGM, Lonza). Cells between passage 2 and 5 were used for the experiments.
Chondrocytes were plated at 8,000 cells/well in 40 μL/well Chondrocyte Differentiation Medium (Lonza; 500 mL Basal Medium, 25 mL FBS, 0.5 mL GA-1000, 1 mL R3-IGF, 2.5 mL bFGF, 0.5 mL Transferrin, and 1 mL Insulin). After 2 hours of incubation at 37° C. and 5% CO2, IL1-β (Peprotech, Rocky Hill, N.J.) was added to a final concentration of 10 ng/mL. 11 wells in 1 row were left unstimulated for normalization and calculating EC50 values. Cells were incubated at 37° C. and 5% CO2 overnight. Assay plates are spun, 25 μl of supernatant media was collected using (S2 pipettor, Apricot Designs). Cells were lysed using 10 μL of (Cell Titer-Glo, Promega). Luminescent signal detected using an En Vision Multilabel reader (Perkin Elmer). MMP-3 levels were measured in supernatant. Supernatant diluted 1:7 in DMEM. MMP-3 levels in the supernatant were measured using MMP-3 LANCE Ultra detection kit (Perkin Elmer). Briefly, 5 μL of diluted supernatant was transferred to low-volume 384 well plates using (S2 pipettor, Apricot Designs). A standard curve was prepared using MMP-3 analyte (range […]). 1.7 μL of 8× mix of Eu-labelled anti-MMP-3 antibody and ULight labelled anti-MMP-3 antibody was added to the plates using Mantis Liquid handler (Formulatrix). Plates were incubated overnight at room temperature. LANCE signal was detected using an EnVision Multilabel reader (Perkin Elmer), equipped with TR-FRET using excitation wavelength of 320 nm and two emission wavelengths of 615 nm and 665 nm. Data was analyzed according to the kit protocol, using the ratio of […] and the standard curve values were used to calculate the amount of MMP3 in the […] (in pg/ml). The normalized averages (fold change over IL1-β stimulated) for each compound concentration were calculated. EC50 and maximum % inhibition values were calculated using the dose-response nonlinear regression curve-fit in Dotmatics.

[2] = test system: Wnt pathway activity (SW480 colon carcinoma cells stably expressing the Sp5-Luc reporter); test: Wnt pathway activity screening assay (Sp5-Luc reporter gene assay); settings: Homo sapiens, SW480, Table 4; SW480 cells stably expressing Sp5-Luc reporter, 10-point dose-response from 10 μM, 36 to 48 hours
[3] = test system: primary human mesenchymal stem cells (hMSCs); test: Chondrogenesis screening using primary human mesenchymal stem cells; type: cell-based; settings: Homo sapiens, Mesenchymal stem cells, hMSC chondrogenesis; maximum activity relative to TGF-β3 (10 ng/mL) positive control; read-out: Max. Activity as % TGF-β3 activity
Outline: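 Derived values are EC50 for 50% chondrogenesis, maximal activity and the dose giving it. These come from nodule area in passage 3–6 primary hMSCs, expressed as fold change over the mean of 3 same-plate DMSO wells, 2–3 replicates per concentration. TGF-β3 served as positive control.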

Row | SMILES | EC50 (CLK2 kinase) | EC50 (CLK3 kinase) | EC50 [1] | Emax [1] | EC50 [2] | Emax [3]
1 | O=C(Nc1c[nH]nc1C(=O)Nc1cccnc1)c1cccnc1 [compound 1] | 23 nM | 5300 nM | 38.9 nM | 100% | 20.5 nM | 
2 | O=C(Nc1c[nH]nc1C(=O)Nc1ccc(OCCN2CCCC2)cc1)c1cccnc1 [compound 3] | 24 nM | 3700 nM | 811 nM | 23.7% | 119 nM | 
3 | COc1cncc(C(=O)Nc2c[nH]nc2C(=O)Nc2ccc(CN(C)C)cc2)c1 [compound 4] | 57 nM | 6610 nM | ≥ 3000 nM | 99.9% | 123 nM | 
4 | COc1cncc(C(=O)Nc2c[nH]nc2C(=O)Nc2ccc3c(c2)CCNC3)c1 [compound 8] | 27 nM | 6160 nM | 342 nM | 76% | 613 nM | 
5 | COc1cncc(C(=O)Nc2c[nH]nc2C(=O)Nc2ccc3c(c2)CCN(C)C3)c1 [compound 9] | 45 nM | 6090 nM | ≥ 3000 nM | 65.6% | 558 nM | 
6 | O=C(Nc1c[nH]nc1C(=O)Nc1ccc(N2CCCC2)nc1)c1cncc(OC2CCNCC2)c1 [compound 11] | 9 nM | 5150 nM | ≥ 3000 nM | 80% | 2.5 nM | 
7 | O=C(Nc1c[nH]nc1C(=O)Nc1ccc(N2CCCCC2)nc1)c1cncc(OC2CCNCC2)c1 [compound 13] | 14 nM | 3500 nM | ≥ 3000 nM | 71% | 662 nM | 
8 | O=C(Nc1c[nH]nc1-c1nc2c(-c3cccc(F)c3)cccc2[nH]1)c1cccnc1 [compound 15] | 2 nM | 485 nM | 76.5 nM | 100% | 2.9 nM | 
9 | Cc1[nH]nc(C(=O)Nc2ccc(CN3CCCC3)cc2)c1/C=C/c1cccnc1 [compound 18] | 20 nM | 3990 nM | 1050 nM | 25.5% | 2150 nM | 
10 | O=C(Nc1ccc(OCCN2CCCC2)cc1)c1n[nH]cc1/C=C/c1cccnc1 [compound 19] | 6 nM | 967 nM | ≥ 3000 nM | 31.1% | 1850 nM | 
11 | O=C(Nc1ccc(N2CCNCC2)nc1)c1n[nH]cc1/C=C/c1cccnc1 [compound 20] | 5 nM | 563 nM | 0.2 nM | 72.6% | 1650 nM | 
12 | CN1CCC(Oc2ccc(NC(=O)c3n[nH]cc3/C=C/c3cccnc3)cn2)CC1 [compound 21] | 4 nM | 733 nM | ≥ 3000 nM | 92.6% | 964 nM | 
13 | Cc1[nH]nc(C(=O)Nc2ccc(OC3CCN(C)CC3)nc2)c1/C=C/c1cccnc1 [compound 22] | 7 nM | 2330 nM | 17.8 nM | 64.6% | > 10000 nM | 
14 | COc1ccc(NC(=O)c2n[nH]cc2/C=C/c2cncc(CN3CCCCC3)c2)cn1 [compound 24] | 26 nM | 1250 nM | ≥ 3000 nM | 74.1% | 1450 nM | 
15 | O=C(Nc1ccc(C2CCC(F)(F)C2)nc1)c1n[nH]cc1C#Cc1cccnc1 (stereo not drawn) [compound 27] | 32 nM | > 10000 nM | ≥ 3000 nM | 88.5% | > 10000 nM | 
16 | Cc1n[nH]c2ccc(-c3cncc(OCCN)c3)cc12 [compound 34] |  | 5250 nM | ≥ 3000 nM | 12.9% | 1640 nM | 
17 | Cc1n[nH]c2ccc(-c3cncc(N4CC(C)(N)C4)n3)cc12 [compound 36] | 70 nM | 3400 nM | 1610 nM |  | 3510 nM | 
18 | CCC1(N)CN(c2cncc(-c3ccc4[nH]nc(C)c4c3)n2)C1 [compound 37] | 43 nM | 5500 nM | ≥ 3000 nM | 55.1% | 1730 nM | 
19 | c1cncc(-c2ccc3[nH]nc(-c4cc5c(-c6cccnc6)cncc5[nH]4)c3c2)c1 [compound 341] |  | 3 nM | 1.1 nM | 58.2% | 310 nM | 58.2%
